Experiments:
Assay type in all cases: physicochemical
[1] = Water content by Karl Fisher analysis on storage (Example 3)
Protocol: Water content (% w/w) by Karl Fisher analysis
(§1) Each test material was stored between 2-8*C prior to placing on stability. Each material was sub-divided into 900 mg aliquots, transferred to brown opaque HDPE plastic bottles and flushed with Argon prior to sealing. Sufficient samples were provided for each time point as well as spares for each storage condition. The samples were placed in appropriate incubators previously commissioned at storage conditions 25° C./60% RH, 40° C./75% RH and 60° C.
Water Content by Karl Fisher Analysis
Water content was determined in duplicate on an aliquot of equilibrated material (approximately 100 mg) using a Tritrino 720 KFS Titrator.

[2] = Visual appearance on storage (Example 3)
Protocol: as §1
The samples were stored for analysis according to the following table: […]

[3] = Colour of solution by visible spectrophotometry on storage (Example 3); conditions: 5% w/v solution in water
Protocol: Colour of solution by UV spectrophotometry.
as §1
Colour by Visible Spectrophotometry
A 5% w/v solution of test material was prepared in water and the absorbance measured at 420 nm in a 1 cm silica cell using a Unicam UV4 Visible/UV spectrophotometer.

[4] = Stability indicating HPLC assay and related substances on storage (Example 3)
Protocol: Assay (% w/w) and related substances determination
as §1
Testing Procedures Test for Identity Content and Impurities
Testing was performed in duplicate (2×25 mg) in accordance with a stability indicating HPLC assay method. The assay results were reported as M6G as is, M6G as the anhydrous, solvent free material and the anhydrous solvent free material corrected for the salt form using the relevant conversion factor.

## CN1CCC23c4c5ccc(O)c4OC2C(OC2OC(C(=O)O)C(O)C(O)C2O)C=CC3C1C5.CN1CCC23c4c5ccc(O)c4OC2C(OC2OC(C(=O)O)C(O)C(O)C2O)C=CC3C1C5.O=C(O)C=CC(=O)O (stereo not drawn) [Morphine-6-glucuronide fumarate]
[1]; 1 month, 25° C./60% RH
  Moisture: 7.26 % w/w
[1]; 1 month, 40° C./75% RH
  Moisture: 7.94 % w/w
[1]; 1 month, 60° C.
  Moisture: 5.98 % w/w
[1]; 3 months, 25° C./60% RH
  Moisture: 8.00 % w/w
[1]; 3 months, 40° C./75% RH
  Moisture: 10.89 % w/w
[1]; Initial
  Moisture: 6.80 % w/w
[2]; 1 month, 25° C./60% RH
  Appearance: White crystalline powder
[2]; 1 month, 40° C./75% RH
  Appearance: Pale yellow crystalline powder
[2]; 1 month, 60° C.
  Appearance: Yellow crystalline powder
[2]; 3 months, 25° C./60% RH
  Appearance: Pale yellow crystalline powder
[2]; 3 months, 40° C./75% RH
  Appearance: Yellow crystalline powder
[2]; Initial
  Appearance: White crystalline powder
[3]; 1 month, 25° C./60% RH
  Colour: 0.034 Abs@420 nm
[3]; 1 month, 40° C./75% RH
  Colour: 0.264 Abs@420 nm
[3]; 1 month, 60° C.
  Colour: 0.794 Abs@420 nm
[3]; 3 months, 25° C./60% RH
  Colour: 0.141 Abs@420 nm
[3]; 3 months, 40° C./75% RH
  Colour: 1.008 Abs@420 nm
[3]; Initial
  Colour: 0.016 Abs@420 nm
[4]; 1 month, 25° C./60% RH
  Known Related Substances HN33177: 0.80%
  Known Related Substances HN75083: 0.03%
  M6G Assay, Anhydrous basis: 88.23 % w/w
  M6G Assay, As is basis: 81.96 % w/w
  M6G Assay, Corrected for the salt form: 99.32 % w/w
  Total Known: 0.83%
  Total Related Substances: 0.91%
  Total Unknown: 0.08%
[4]; 1 month, 40° C./75% RH
  Known Related Substances HN33177: 0.70%
  Known Related Substances HN67003: 0.58%
  Known Related Substances HN75076: 0.03%
  Known Related Substances HN75083: 0.02%
  Known Related Substances Morphine: 0.10%
  M6G Assay, Anhydrous basis: 84.17 % w/w
  M6G Assay, As is basis: 77.62 % w/w
  M6G Assay, Corrected for the salt form: 94.76 % w/w
  Total Known: 1.43%
  Total Related Substances: 2.60%
  Total Unknown: 1.17%
[4]; 1 month, 60° C.
  Known Related Substances HN33177: 0.62%
  Known Related Substances HN67003: 0.97%
  Known Related Substances HN75076: 0.06%
  Known Related Substances HN75083: 0.02%
  Known Related Substances Morphine: 0.24%
  M6G Assay, Anhydrous basis: 82.11 % w/w
  M6G Assay, As is basis: 77.33 % w/w
  M6G Assay, Corrected for the salt form: 92.44 % w/w
  Total Known: 1.91%
  Total Related Substances: 3.85%
  Total Unknown: 1.94%
[4]; 3 months, 25° C./60% RH
  Known Related Substances HN33177: 0.75%
  Known Related Substances HN67003: 0.26%
  Known Related Substances HN75083: 0.10%
  Known Related Substances Morphine: 0.07%
  M6G Assay, Anhydrous basis: 87.15 % w/w
  M6G Assay, As is basis: 81.20 % w/w
  M6G Assay, Corrected for the salt form: 98.11 % w/w
  Total Known: 1.18%
  Total Related Substances: 1.90%
  Total Unknown: 0.72%
[4]; 3 months, 40° C./75% RH
  Known Related Substances HN33177: 0.57%
  Known Related Substances HN67003: 1.56%
  Known Related Substances HN75076: 0.40%
  Known Related Substances Morphine: 0.45%
  M6G Assay, Anhydrous basis: 79.38 % w/w
  M6G Assay, As is basis: 71.64 % w/w
  M6G Assay, Corrected for the salt form: 89.37 % w/w
  Total Known: 2.98%
  Total Related Substances: 9.07%
  Total Unknown: 6.09%
  drop in assay compared to the initial values: around 10%
[4]; Initial
  Known Related Substances HN33177: 0.77%
  Known Related Substances HN67003: 0.04%
  Known Related Substances HN75083: 0.05%
  M6G Assay, Anhydrous basis: 89.44 % w/w
  M6G Assay, As is basis: 84.11 % w/w
  M6G Assay, Corrected for the salt form: 100.71 % w/w
  Total Known: 0.86%
  Total Related Substances: 0.95%
  Total Unknown: 0.09%

— US20060166900A1, “Salt of morphine-6-glucuronide” (CeNeS Limited, priority 2002, published 2006)
